In patent US5006570A, “Dihydrobenzofuran- and chroman-carboxamide derivatives, processes for the preparation thereof and use thereof as neuroleptics” (Laboratoires Delagrange, priority 1986, dated 1991):
Read-outs that look alike come from different tables or passages of the source.

Columns and labels:
[1] = Acute toxicity in mice (LD50, Bliss' method); details: mouse, in vivo
Experimental: Acute toxicity was studied in mice, the compounds being administered intravenously, subcutaneously, intraperitoneally and orally.
The doses causing the death of 50% of the animals (LD50) were determined by Bliss' method, giving the following results: […]

[2] = system: spontaneous motor function in mice; experiment: Inhibition of spontaneous motor function in mice, Winter and Flataker test (photoelectric method); format: in vivo; details: Mus musculus
Description: (§1) Thus, an inhibitory effect on spontaneous motor function in mice, a catalepsy-inducing power in rats, and antagonism towards certain apomorphine- and amphetamine-induced behavioural effects were investigated, in particular.
(§2) Regarding the spontaneous motor function in mice, an inhibitory effect of the inventive compounds was effectively observed and recorded by a photoelectric method, according to a technique similar to that of Winter and Flataker (J. Pharmacol. Exp. Ther. 1951, 101, 156-162) and by measurement of activity using an Animex apparatus.
(§3) The compounds were administered intraperitoneally or orally, respectively, 15 or 60 minutes before the recording according to the method adopted.
(§4) The values of the 50% inhibitory doses of motor function ID50 of the compounds are collected in the following table: […]

[3] = system: spontaneous motor function in mice; experiment: Inhibition of spontaneous motor function in mice, Animex activity measurement test; format: in vivo; details: Mus musculus
Description: as §1, §2, §3, §4

[4] = system: catalepsy in rats; experiment: Catalepsy in rats; format: in vivo; details: Rattus norvegicus, sc, subcutaneously, at the peak of effect
Experimental: The catalepsy-inducing function of the compounds of the invention was studied in rats. Each of the compounds was administered subcutaneously, at increasing doses, to groups of 10 rats (1 group for each dose). […] The dose giving rise to catalepsy in 50% of the animals (ED50) was determined graphically, at the peak of effect.

[5] = system: Apomorphine stereotypy; experiment: Antagonism of apomorphine stereotypy in rats (1.25 mg/kg IV, Janssen); format: in vivo; details: Rattus norvegicus, sc, compound s.c. 60 minutes before apomorphine 1.25 mg/kg IV, read-out: ID50 S.C., Apomorphine stereotypy (1.25 mg/kg IV)
Description: (§5) Apomorphine and amphetamine induce stereotyped movements in rats which are antagonized by neuroleptics. […]
(§6) These different experimental conditions made it possible to establish the doses which antagonize stereotypy by 50% (ID50), judged on the basis of the various components of the movements which were observed.

[6] = system: Apomorphine stereotypy; experiment: Antagonism of apomorphine stereotypy in rats (0.5 mg/kg SC, derived from Puech); format: in vivo; details: Rattus norvegicus, ip, compound i.p. 30 minutes before apomorphine 0.5 mg/kg SC, read-out: ID50 I.P., Apomorphine stereotypy (0.5 mg/kg SC)
Description: as §5, §6

[7] = system: dexamphetamine stereotypy; experiment: Antagonism of dexamphetamine stereotypy in rats (Janssen amphetamine test); format: in vivo; details: Rattus norvegicus, sc, 1 h, compound s.c. simultaneously with dexamphetamine 10 mg/kg i.v., effect at 60 minutes, read-out: ID50 S.C., Janssen amphetamine test
Experimental: Apomorphine and amphetamine induce stereotyped movements in rats which are antagonized by neuroleptics. Different doses of apomorphine administered by different routes were applied to produce these movements. In the test using dexamphetamine, carried out according to the technique of Janssen (Arz. Forsch. 1961, 11, 932-938), 10 mg/kg of dexamphetamine were injected intravenously, the test product being injected simultaneously subcutaneously, and the effect being measured 60 minutes after these injections. These different experimental conditions made it possible to establish the doses which antagonize stereotypy by 50% (ID50), judged on the basis of the various components of the movements which were observed.

[8] = system: apomorphine-induced climbing behavior; experiment: Antagonism of apomorphine-induced climbing behavior in mice; format: in vivo; details: Mus musculus, ip, compound i.p. 30 minutes before apomorphine 1 mg/kg s.c., read-out: ID50 I.P., apomorphine-induced climbing behavior
Experimental: Another test using apomorphine was applied, based on the observation of the climbing behavior which it induces in mice, this behavior being antagonized by neuroleptics, according to Puech (Eur. J. Pharmacol. 1978, 50, 291-300).
The compound was administered intraperitoneally 30 minutes before the apomorphine (1 mg/kg subcutaneously), and the antagonism was assessed 45 to 50 minutes after the administration of the compound.

[9] = ip, read-out: Lethal doses50 i.p.
[10] = iv, read-out: Lethal doses50 i.v.
[11] = po, orally, read-out: Lethal doses50 orally
[12] = sc, read-out: Lethal doses50 s.c.
[13] = ip, read-out: ID50 i.p., Winter and Flataker test
[14] = po, read-out: ID50 p.o., Winter and Flataker test
[15] = ip, read-out: ID50 i.p., Animex activity measurement test
[16] = po, read-out: ID50 p.o., Animex activity measurement test

Row | SMILES | LD50 [1, 9] [mg/kg] | LD50 [1, 10] [mg/kg] | LD50 [1, 11] [mg/kg] | LD50 [1, 12] [mg/kg] | ED50 [2, 13] [mg/kg] | ED50 [2, 14] [mg/kg] | ED50 [3, 15] [mg/kg] | ED50 [3, 16] [mg/kg] | ED50 [4] [mg/kg] | ED50 [5] [mg/kg] | ED50 [6] [mg/kg] | ED50 [7] [mg/kg] | ED50 [8] [mg/kg] | mortality ([1]; sc, at 900 mg/kg, read-out: deaths of animals at 900 mg/kg s.c.) [%]
1 | CNS(=O)(=O)c1cc2c(c(C(=O)NCC3CCCN3CC3=CCCCC3)c1)OC(C)C2 (centres unmarked) [Ex 1, N-(1-Cyclohexenylmethyl-2-pyrrolidinylmethyl)-5-methylsulphamoyl-2-methyl-2,3-dihydrobenzofuran-7-carboxamide] | 134 to 152 | 30.5 to 35.2 | 259 to 295 | 316 to 318 | 1.8 | 12.4 to 13.2 | 2.15 to 3.4 | 19.2 to 22.4 | 6.6 | 0.375 | 0.64 to 0.65 | 0.285 | 0.55 to 0.63 | 
2 | O=C(NCC1CCCN1CC1=CCCCC1)c1cc(Cl)cc2c1OCCC2.O=C(O)/C=C/C(=O)O (centres unmarked) [Ex 13, N-(1-Cyclohexenylmethyl-2-pyrrolidinylmethyl)-6-chlorochroman-8-carboxamide fumarate] | 120 |  | 422 to 473 |  | 1.96 | 20.9 | 3 | 22.7 | 1.5 | 0.22 | 0.38 to 0.44 | 0.15 | 0.32 to 0.35 | 0
3 | CC1Cc2cc(Cl)cc(C(=O)NCC3CCCN3CC3=CCCCC3)c2O1 (centres unmarked) [Ex 15, Neutral ethanedisulphonate of N-(1-cyclohexenylmethyl-2-pyrrolidinylmethyl)-5-chloro-2-methyl-2,3-dihydrobenzofuran-7-carboxamide] | 232 to 234 | 31.1 to 34.7 |  | 1410 | 3.5 | 43.4 | 2.2 | 23.2 | 1.35 | 0.41 | 0.58 to 0.59 | 0.18 | 0.28 to 0.34 | 
4 | O=C(NCC1CCCN1CC1=CCCCC1)c1cc(Cl)cc2c1OCC2 (centres unmarked) [Ex 14, N-(1-Cyclohexenylmethyl-2-pyrrolidinylmethyl)-5-chloro-2,3-dihydrobenzofuran-7-carboxamide] | 69.6 to 83.3 | 24.8 | 350 to 354 | 412 to 434 | 2.1 | 27 | 1.7 | 25 | 2.7 | 0.29 | 0.31 to 0.41 | 0.12 | 0.27 to 0.29 | 
